From PubChem BioAssay AID602284 (Broad Institute, 2012)
Active and inactive are the calls of the source.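 How the source made its calls: active means every test run fits a half-maximal inhibitory dose no higher than twice its top dose tested; inconclusive means runs disagree, flat partial inhibition, or poor curve fit; inactive means the rest.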

Biological target: Cyclin-dependent kinase 5 activator 1 (Homo sapiens) + Cyclin-dependent kinase 5 (Homo sapiens) (UniProt Q15078+Q00535)
Experiment: CDK5/p35 kinase inhibitors, dose response, biochemical, ADP-Glo luminescence, dry powder samples (AID 602284)
Conditions: histone H1 peptide

Sequence of Cyclin-dependent kinase 5 activator 1 (Homo sapiens) + Cyclin-dependent kinase 5 (Homo sapiens) (Q00535 whole entry, looked up): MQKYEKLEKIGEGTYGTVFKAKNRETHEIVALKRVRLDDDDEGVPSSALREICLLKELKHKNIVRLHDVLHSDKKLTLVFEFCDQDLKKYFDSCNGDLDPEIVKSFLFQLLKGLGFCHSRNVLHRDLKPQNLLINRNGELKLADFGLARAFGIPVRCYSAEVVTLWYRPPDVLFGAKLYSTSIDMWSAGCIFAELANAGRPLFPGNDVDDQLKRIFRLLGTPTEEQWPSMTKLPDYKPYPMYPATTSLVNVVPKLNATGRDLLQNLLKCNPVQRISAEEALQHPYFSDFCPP
Sequence of Cyclin-dependent kinase 5 activator 1 (Homo sapiens) + Cyclin-dependent kinase 5 (Homo sapiens) (Q15078 whole entry, looked up): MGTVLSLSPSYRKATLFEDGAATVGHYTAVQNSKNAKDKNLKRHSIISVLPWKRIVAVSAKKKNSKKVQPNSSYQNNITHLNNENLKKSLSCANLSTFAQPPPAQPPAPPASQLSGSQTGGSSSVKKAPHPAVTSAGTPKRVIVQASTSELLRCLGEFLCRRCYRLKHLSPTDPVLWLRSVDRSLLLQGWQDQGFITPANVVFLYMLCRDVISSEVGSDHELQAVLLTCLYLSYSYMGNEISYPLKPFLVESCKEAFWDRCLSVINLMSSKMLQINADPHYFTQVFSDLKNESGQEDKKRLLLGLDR

SMILES | activity change, negative = inhibition (at 30 µM (top of the series)) | also measured
COc1ccc(C(=O)N2CCN(c3ccccn3)CC2)cc1 | inactive | 
CCn1c(NC(=O)c2cccc(S(=O)(=O)NC)c2)nc2ccccc21 |  | AC50: 29.1 µM
N#Cc1ccc(C(=O)N2CCN(c3ccccn3)CC2)cc1 | inactive | 
O=C(c1ccc(Cl)cc1)N1CCN(c2cccc(C(F)(F)F)n2)CC1 | inactive | 
O=C(c1ccccc1Cl)N1CCN(c2ccccn2)CC1 | inactive | 
CCCn1c(NC(=O)c2ccc(OC)c(S(=O)(=O)N3CCCC3)c2)nc2ccccc21 | inactive | 
COc1cc(C(=O)N2CCN(c3ccccc3)CC2)cc(OC)c1OC | inactive | 
CCCn1c(NC(=O)c2cccc(S(=O)(=O)N3CCCCC3)c2)nc2ccccc21 |  | AC50: 13.5 µM
CCCCC(=O)N1CCN(c2ccccn2)CC1 | inactive | 
Cc1ccnc(N2CCN(C(=O)c3ccc(Cl)cc3)CC2)c1 | inactive | 
CCCn1c(NC(=O)c2ccc(Cl)c(S(=O)(=O)N3CCCC3)c2)nc2ccccc21 | inactive | 
O=C(c1ccc(F)cc1)N1CCN(c2ccccn2)CC1 | inactive | 
O=C(c1cccc(Cl)c1)N1CCN(c2ccccn2)CC1 | inactive | 
O=C(c1ccc(Cl)cc1)N1CCN(c2ccccn2)CC1 | inactive | 
N#Cc1ccc(N2CCN(C(=O)c3ccc(Cl)cc3)CC2)nc1 | inactive | 
O=C(c1ccc(Cl)cc1)N1CCN(c2ncccc2C(F)(F)F)CC1 | inactive | 
Cc1ccc(C(=O)N2CCN(c3ccccn3)CC2)cc1 | inactive | 

SMILES | activity change, negative = inhibition (at 30 µM (top of the series)) | also measured
COc1ccnc(N2CCN(C(=O)c3ccc(Cl)cc3)CC2)c1 | inactive | 
O=C(c1ccc(Cl)cc1)N1CCN(c2ccc(C(F)(F)F)cn2)CC1 | inactive | 
O=C(c1ccccc1)N1CCN(c2ccccn2)CC1 |  | activity change, negative = inhibition (at 10 µM (top of the series)): inactive
CC(C)(C)n1c(NC(=O)c2cccc(S(C)(=O)=O)c2)nc2ccccc21 |  | AC50: 12.3 µM
COc1cccc(C(=O)N2CCN(c3ccccn3)CC2)c1 | inactive | 
c1ccc(N2CCNCC2)nc1 |  | activity change, negative = inhibition (at 0.38 µM (top of the series)): inactive
Cc1ccc(N2CCN(C(=O)c3ccc(Cl)cc3)CC2)nc1 | inactive | 
N#Cc1cccnc1N1CCN(C(=O)c2ccc(Cl)cc2)CC1 | inactive | 
CCCn1c(NC(=O)c2cccc(S(=O)(=O)N(C)C)c2)nc2ccccc21 |  | AC50: 10.2 µM
CCOc1cc(C(=O)N2CCN(c3ccccn3)CC2)cc(OCC)c1OCC | inactive | 
Cc1cccc(N2CCN(C(=O)c3ccc(Cl)cc3)CC2)n1 | inactive | 
CC(C)C(=O)N1CCN(c2ccccn2)CC1 | inactive | 
COc1cc(C(=O)N2CCN(c3ccccn3)CC2)cc(OC)c1OC | inactive | 
COCCC(=O)N1CCN(c2ccccn2)CC1 | inactive | 
CCCn1c(NC(=O)c2cccc(S(=O)(=O)N(CC)CC)c2)nc2ccccc21 |  | AC50: 2.95 µM
O=C(C1CCCCC1)N1CCN(c2ccccn2)CC1 | inactive | 
COc1cccnc1N1CCN(C(=O)c2ccc(Cl)cc2)CC1 | inactive | 
